Measured values published in US20170306042A1, “IMMUNOGENIC MODULATION BY ENDOCRINE DEPRIVATION THERAPY IMPROVES SENSITIVITY OF TUMOR CELLS TO IMMUNE MEDIATED LYSIS” (The United States of America, as represented by the …, priority 2014, published 2017).
“Also recorded” adds a separate entry of the source.

Tests used:
[1] = system: LNCaP cells; experiment: MUC1-specific CTL lysis assay, LNCaP targets; format: cell-based, human; settings: 10 μM, 48 hours, E:T 30:1, vs vehicle
Protocol: (§3) At specific time points, cells were harvested and counted. Equal numbers of effector target cells from all treatment were plated with respective cytotoxic T-cells.

[2] = system: PC-3 cells; experiment: MUC1-specific CTL lysis assay, PC-3 targets; format: cell-based, human; settings: 10 μM, 48 hours, E:T 30:1, vs vehicle
Protocol: as §3

[3] = system: PSA; experiment: RT-PCR of PSA mRNA in LNCaP cells; format: cell-based, human; settings: 10 μM, 48 hours, P<0.0001
[4] = system: LNCaP cells; experiment: CEA-specific CTL lysis assay, LNCaP targets; format: cell-based, human; settings: 10 μM, 48 hours, E:T 30:1, P<0.0001
Text: To evaluate the importance of DAPK1, DAPK1 siRNA was used to reduce the expression of DAPK1.

[5] = system: LNCaP/AR(cs) cells; experiment: Cell proliferation and viability, LNCaP/AR(cs); format: cell-based, human
[6] = system: LNCaP/AR(cs) cells; experiment: CEA- or PSA-specific CD8+ T-cell killing, LNCaP/AR(cs) targets; format: cell-based, human
[7] = system: ZR75-1 (ER+AR+) cells; experiment: Tumor cell proliferation, ZR75-1; format: cell-based, human; settings: 10 μM; 48 or 72 hours; P<0.05 vs vehicle
Protocol: (§1) At the indicated time points, cells were harvested and the number of viable cells was determined by trypan blue exclusion.

[8] = system: BT549 (ER−AR+) cells; experiment: Tumor cell proliferation, BT549; format: cell-based, human; settings: 10 μM; 48 or 72 hours; P<0.01 vs vehicle; to a greater degree than ZR75-1
Protocol: as §1

[9] = system: ZR75-1 (ER+AR+) cells; experiment: CEA-specific CTL lysis assay, ZR75-1 targets; format: cell-based, human; settings: 10 μM, E:T 30:1, vs vehicle
Protocol: (§2) The HLA-A2-restricted CEA-specific CTL recognizes the CEA peptide epitope […] (SEQ ID NO: 1) (CAP-1). […] The percentage of tumor lysis was calculated as follows: % tumor lysis=[(experimental cpm−spontaneous cpm)/(maximum cpm−spontaneous cpm)]×100.
These cells were then used as target cells for CTL-mediated killing assays utilizing CEA-specific CTLs.

[10] = system: MDA MB 231 (ER−AR−) cells; experiment: TRAIL-mediated lysis assay, MDA MB 231 targets; format: cell-based, human; settings: 10 μM, 500 ng/ml KillerTRAIL, P<0.01
Protocol: as §2
OPG expression was inhibited in MDA MB 231 cells using siRNA duplexes targeting OPG sequences and control siRNA duplexes (Origene, Rockville, Md.). MDA-MB-231 cells were transfected with OPG or control siRNA according to the manufacturer's instructions. […] Forty-eight hours post siRNA transfection, the MDA MB 231 cells were also used as target cells in CEA-specific CTL and TRAIL-mediated lysis assays as described.

[11] = system: MDA MB 231 (ER−AR−) cells; experiment: Apoptosis PCR array (90 genes) in MDA MB 231 cells; format: cell-based, human; settings: 24 hours, qRT-PCR
Protocol: Total RNA was isolated from the cells using the RNeasy Extraction Kit (Qiagen, Valencia, Calif.). RNA was reverse-transcribed into cDNA using the Advantage RT-for-PCR Kit (Clontech, Mountain View, Calif.). cDNA (10 ng) was used in a quantitative real-time (RT) PCR reaction using probes specific for AR (Hs00901571_m1) and GAPDH (4326317E). AR mRNA expression level was calculated as expression relative to GAPDH. […] Total RNA was isolated from the cells using the RNeasy Extraction Kit. RNA was reverse-transcribed into cDNA using the RT^2 First Strand Kit (SA Biosciences, Valencia, Calif.). Relative mRNA expression levels of 90 genes involved in apoptosis were assessed using an apoptosis PCR array (SA Biosciences) per the manufacturer's instructions. RT-PCR was performed on the 7300 Real-Time PCR System (Applied Biosystems, Carlsbad, Calif.).
OPG is a decoy receptor for receptor activator of nuclear factor kappa-B ligand (RANKL) which inhibits RANKL activation of nuclear factor kappa-B induced apoptosis.

[12] = system: ZR75-1 cells; settings: 10 μM, 48 hours
Protocol: After 48 hours, cells were harvested and stained with the following antibodies: HLA A2-PE-Cy7, MUC-1-FITC, CD54-BV421, CD95-FITC (BD Biosciences, San Jose, Calif.), CEA-APC (Miltenyi Biotec, Auburn, Calif.), TRAIL receptor 1 and TRAIL receptor 2 (R & D Systems, Minneapolis, Minn.). LIVE/DEAD Fixable Violet Dead Cell Stain (Life Technologies, Grand Island, N.Y.) was used to determine cell viability. Cells were incubated with the antibodies for 30 min at 4° C., acquired on a FACS Verse flow cytometer (Becton Dickinson, Franklin Lakes, N.J.), and analyzed using FlowJo software (TreeStar, Inc., Ashland, Oreg.).

[13] = system: prostate cancer; settings: reported clinical trials; cited from earlier work
[14] = system: murine prostate carcinomas; settings: cited from earlier work
[15] = system: TRAMP-C2 mouse prostate carcinomas; settings: in vitro (Ardiani et al. 2013); cited from earlier work
[16] = system: LNCaP cells; experiment: PSA-specific CD8+ T-cell killing, LNCaP targets; settings: 10 μM, 48 hours, E:T 30:1, P<0.01
Protocol: as §3

[17] = system: LNCaP control-shRNA cells; experiment: CEA-specific CTL lysis assay, LNCaP control-shRNA targets; settings: 10 μM, 48 hours, E:T 30:1, P<0.05
Protocol: as §3

Substance: enzalutamide
- sensitivity to MUC1-specific CTL-mediated lysis [1]: significantly enhanced their sensitivity
- sensitivity to MUC1-specific CTL-mediated lysis [2]: neither enzalutamide nor abiraterone improved PC-3 cells' sensitivity; also recorded: did not improve the sensitivity
- reduction in levels of PSA mRNA [3]: 5.5 fold
- sensitivity to CEA-specific CD8+ T-cell killing [4]: significantly enhanced the sensitivity
- proliferation of LNCaP/AR(cs) cells ([5]; 10 μM): did not inhibit the proliferation
- inhibition of growth of LNCaP/AR(cs) cells ([5]; 30 μM): 50%
- viability of LNCaP/AR(cs) cells ([5]; 30 μM): no effect on the cells' viability
- sensitivity to T-cell killing ([6]; 10 μM, CEA- or PSA-specific CD8+ T-cells, P<0.01): significantly improved the cells' sensitivity
- sensitivity to T-cell killing ([6]; 30 μM, P<0.01, no significant difference to 10 μM): significantly improved the cells' sensitivity
- proliferation of ZR75-1 cells [7]: significantly inhibited the proliferation
- proliferation of BT549 cells [8]: significantly inhibited the proliferation
- sensitivity to CEA-specific CTL-mediated lysis [9]: significantly enhanced their sensitivity
- sensitivity to Trail-mediated lysis [10]: significantly improved the sensitivity
- osteoprotegerin (OPG) gene down-regulated [11]: ~25 fold
- CEA mean fluorescence intensity [12]: 4690
- CEA percent positivity [12]: 28.9%
- Fas mean fluorescence intensity [12]: 1611
- Fas percent positivity [12]: 26.8%
- HLA A2 mean fluorescence intensity [12]: 3047
- HLA A2 percent positivity [12]: 10.0%
- ICAM-1 mean fluorescence intensity [12]: 2473
- ICAM-1 percent positivity [12]: 26.1%
- MUC-1 mean fluorescence intensity [12]: 2203
- MUC-1 percent positivity [12]: 37.1%
- Trail R1 mean fluorescence intensity [12]: 4325
- Trail R1 percent positivity [12]: 7.9%
- Trail R2 mean fluorescence intensity [12]: 4502
- prostate cancer patients who did not respond and continued to have rising PSA levels [13]: more than 30%
- number or function of T-cells ([14]; Ardiani et al. 2013): did not alter the number or function of T-cells
- MHC-I and Fas on the surface of tumor cells ([14]; murine prostate carcinomas (Ardiani et al. 2013)): up-regulated MHC-I and Fas
- sensitivity to gp70-specific CTL killing [15]: improve tumor cells' sensitivity
- sensitivity to PSA-specific T-cell killing [16]: significantly improved their sensitivity
- sensitivity to CEA-specific CTL-mediated lysis [17]: significantly enhanced the sensitivity
